Data taken from patent publication US20230278987A1, “Antimicrobial Compounds and Methods” (Curza Global, LLC, priority 2019, published 2023).
pIC50: −log10 of the molar value. Converted amounts (≈) assume the structure as drawn. Where a name gives a salt, the structure may show the parent alone. Read-outs that look alike come from different tables or passages of the source.

How the values were obtained:
[1] = biological target: Rabbit Reticulocyte Lysate (eukaryotic protein synthesis); experiment: Rabbit Reticulocyte Lysate: inhibition of eukaryotic protein synthesis (luciferase); format: biochemical; settings: 30° C. for 90 minutes, read-out: retic. IC50
Procedure: Inhibition of eukaryotic protein synthesis was determined using the Rabbit Reticulocyte Lysate System, Nuclease-Treated from Promega (catalog #L-4960) with slight modifications to the manufacturer’s protocol. Compounds were serial diluted in 0.5 mL microcentrifuge tubes by mixing and transferring 50 µL from the highest concentration to 50 µL of water, mixing and transferring 50 µL of this 2-fold dilution to 50 µL of water. This mixing and transferring was repeated so that there are a total of 8 tubes with serial dilutions of compound at 10× the desired screening concentration that are ultimately diluted to 1× by the addition of rabbit reticulocyte luciferase synthesis mixture. Serial dilutions of compounds were added (2.5 µL) to wells in a black round bottom 96-well plate. Water (2.5 µL) was used as a “no inhibitor” control in 4 wells/plate. No RNA control reaction mixture (2 µL; see below) was used as a control in 4 wells/plate for background luminescence. Rabbit reticulocyte luciferase synthesis mixture (22.5 µL; see below) was added to wells with compounds or water mixture and incubated at 30° C. for 90 minutes. Luciferase assay reagent (25 µL) was added with luminescence measured using a BioTek Synergy HTX plate reader. % Inhibition was determined relative to no inhibitor controls.
Rabbit reticulocyte luciferase synthesis mixture: • 1,000 µL rabbit reticulocyte lysate • 5.7 µL Luciferase Control RNA (1 µg/ µL) • 26 µL complete amino acid mixture • 395 µL water
No RNA Control • 70 µL rabbit reticulocyte lysate • 2 µL complete amino acid mixture • 28 µL water

[2] = system: S.aureus (Sa); experiment: Broth microdilution MIC against S.aureus (Sa); format: cell-based; settings: Staphylococcus aureus
Procedure: (§1) A certified BSL-2 laboratory was used for testing. Compounds were evaluated using the broth microdilution minimum inhibitory concentration (MIC) and minimum bactericidal concentration (MBC) assays defined by Clinical and Laboratory Standards Institute (CLSI) in the M26-A guideline against S.aureus (Sa), E.coli (Ec), K.pneumoniae (Kp), A.baumannii (Ab), E.faecalis (Ef) and P.aeruginosa (Pa).
(§2) MICs were determined using the Clinical Laboratory and Standards Institute (CLSI) Broth Microdilution Method with slight modification. Clinical and Laboratory Standards Institute (2012). “Methods for dilution antimicrobial susceptibility tests for bacteria that grow aerobically; approved standard, 9th ed. M07-A9. Clinical and Laboratory Standards Institute, Wayne, PA.” Serial two-fold dilutions of compounds are prepared in sterile clear roundbottom 96-well plates.
(§3) To prepare microdilution trays, two-fold dilutions of antimicrobial agent are prepared in growth medium: Cation-Adjusted Mueller-Hinton Broth (CAMHB), or CAMHB supplemented with sodium bicarbonate (6.25 or 25 mM final concentration prepared from a 1.0 M stock solution) or CAMHB supplemented with heat inactivated human serum (Fisher Cat. # BP2657100) 0-50% by adding 200 µL of the highest concentration to be tested (64 µg/mL, for example) in row A, mixing and transferring 100 µL from row A to 100 µL growth medium in row B, then repeating the mixing and transferring through row H of the 96-well plate, discarding the excess 100 µL remaining. This slight modification to the CLSI protocol enables evaluation of MICs for 3 compounds per plate in triplicate, albeit with only 8 compound dilutions (CLSI protocol enables 2 compounds in triplicate with 10 dilutions). Bacterial suspensions are added to a final concentration of 5 × 10^4 CFU/well by adding 5 µL of a 1:10 dilution of a 0.5 McFarland suspension (1 × 10^8 CFU/mL) for each bacterium evaluated. Bacterial suspensions were prepared using the growth method described by CLSI. Well-isolated colonies (3-5 from an agar plate) were selected using a sterile loop and used to inoculate a tube containing 4 mL of CAMHB. The cultures are incubated at 35 ± 2° C. until it achieves or exceeds the turbidity of the 0.5 McFarland standard, determined by measuring A600nm (usually two to six hours). When growth exceeds a 0.5 McFarland standard, the turbidity is adjusted with broth to be equivalent to a 0.5 McFarland standard.

[3] = system: P.aeruginosa (Pa); experiment: Broth microdilution MIC against P.aeruginosa (Pa); format: cell-based; settings: Pseudomonas aeruginosa
Procedure: as §1, §2, §3

[4] = system: E.faecalis (Ef); experiment: Broth microdilution MIC against E.faecalis (Ef); format: cell-based; settings: Enterococcus faecalis
Procedure: as §1, §2, §3

[5] = system: A.baumannii (Ab); experiment: Broth microdilution MIC against A.baumannii (Ab); format: cell-based; settings: Acinetobacter baumannii
Procedure: as §1, §2, §3

[6] = system: E.coli (Ec); experiment: Broth microdilution MIC against E.coli (Ec); format: cell-based; settings: Escherichia coli
Procedure: as §1, §2, §3

[7] = system: E.coli S30 extract (bacterial protein synthesis); experiment: E.coli S30 extract: inhibition of bacterial protein synthesis (luciferase); format: biochemical; settings: 37° C. for 1 hour
Procedure: E.coli S30 extract: Inhibition of bacterial protein synthesis was determined using the E.coli S30 Extract System for Circular DNA (Promega catalog #L-2010) and Luciferase Assay Reagent (Promega catalog #E1500) with slight modifications to a published protocol. Fyfe, C., Sutcliffe, J.A. and Grossman, T.H. (2012) “Development and characterization of a Pseudomonas aeruginosa in vitro coupled transcription-translation assay system for evaluation of translation inhibitors” J. Microbiol. Methods 90(3), 256-261.
Compounds were serial diluted in 0.5 mL microcentrifuge tubes by mixing and transferring 50 µL from the highest concentration to 50 µL of water, mixing and transferring 50 µL of this 2-fold dilution to 50 µL of water. This mixing and transferring was repeated so that there are a total of 8 tubes with serial dilutions of compound at 10× the desired screening concentration that are ultimately diluted to 1× by the addition of S30 luciferase synthesis mixture. Serial dilutions of compounds were added (2 µL) to wells in a black round bottom 96-well plate. Water (2 µL) was used as a “no inhibitor” control in 4 wells/plate. No DNA control reaction mixture (20 µL; see below) was used as a control in 4 wells/plate for background luminescence. S30 luciferase synthesis mixture (18 µL; see below) was added to wells with compounds or water mixture and incubated at 37° C. for 1 hour. Reactions were stopped by transferring to 4° C. refrigerator for 5 minutes then 25 µL of luciferase activity mix was added. Luminescence was measured using a BioTek Synergy HTX plate reader. % Inhibition was determined relative to no inhibitor controls.
S30 luciferase synthesis mixture: • 445 µL S30 extract, circular • 712 µL S30 Premix without amino acids • 4.45 µL pBESTluc™ DNA (1 µg/ µL) • 78 µL complete amino acid mixture • 267 µL water
No DNA control: • 20 µL S30 extract, circular • 32 µL S30 Premix without amino acids • 7 µL complete amino acid mixture • 21 µL water

[8] = CAMHB supplemented with sodium bicarbonate 25 mM, read-out: Sa + bicarb 25 (MIC)
[9] = CAMHB supplemented with sodium bicarbonate 25 mM, read-out: Pa +bicarb 25 (MIC)
[10] = CAMHB supplemented with sodium bicarbonate 25 mM, read-out: Ef +bicarb 25 (MIC)
[11] = CAMHB supplemented with sodium bicarbonate 25 mM, read-out: Ab +bicarb 25 (MIC)
[12] = CAMHB supplemented with sodium bicarbonate 25 mM, read-out: E.coli + bicarb 25 (MIC)
[13] = read-out: E.coli + bicarb 25 (MIC)
[14] = CAMHB supplemented with sodium bicarbonate 6.25 mM, read-out: Sa + bicarb 6.25 (MIC)
[15] = CAMHB supplemented with sodium bicarbonate 6.25 mM, read-out: Pa +bicarb 6.25 (MIC)
[16] = CAMHB supplemented with sodium bicarbonate 6.25 mM, read-out: Ef +bicarb 6.25 (MIC)
[17] = CAMHB supplemented with sodium bicarbonate 6.25 mM, read-out: Ab +bicarb 6.25 (MIC)
[18] = CAMHB supplemented with sodium bicarbonate 6.25 mM, read-out: E. coli + bicarb 6.25 (MIC)

SMILES	pIC50 [1]	MIC [2, 8] [µg/mL]	MIC [3, 9] [µg/mL]	MIC [4, 10] [µg/mL]	MIC [5, 11] [µg/mL]	MIC [6, 12] [µg/mL]	pIC50 [7]	MIC ([2]; read-out: Sa + bicarb 25 (MIC)) [µg/mL]	MIC ([3]; read-out: Pa +bicarb 25 (MIC)) [µg/mL]	MIC ([4]; read-out: Ef +bicarb 25 (MIC)) [µg/mL]	MIC ([5]; read-out: Ab +bicarb 25 (MIC)) [µg/mL]	MIC [6, 13] [µg/mL]	MIC [2, 14] [µg/mL]	MIC [3, 15] [µg/mL]	MIC [4, 16] [µg/mL]	MIC [5, 17] [µg/mL]	MIC [6, 18] [µg/mL]
CC(C)(N)C(=O)N1CCN(C(=O)Nc2ccn(-c3ccc4c(c3)OCC(N3CC[C@@H](CN)C3)C4)c(=O)n2)CC1 (stereo partly shown) [Compound 14]	≤ 6.00	< 8	8 to 32 (≈ 14.9 to 59.4 µM)	8 to 32 (≈ 14.9 to 59.4 µM)	8 to 32 (≈ 14.9 to 59.4 µM)	< 8	≤ 6.00	–	–	–	–	–	–	–	–	–	–
CN(C1CCc2cc(-n3ccc(NC(=O)N4CCN(C(=O)C(C)(C)N)CC4)nc3=O)ccc2C1)[C@H]1CC[C@H](N)CC1 (stereo partly shown) [Compound 15, 4-(2-amino-2-methylpropanoyl)-N-(1-(6-(((1r,4r)-4-aminocyclohexyl)(methyl)amino)-5,6,7,8-tetrahydronaphthalen-2-yl)-2-oxo-1,2-dihydropyrimidin-4-yl)piperazine-1-carboxamide hydrochloride salt]	≤ 6.00	< 8	8 to 32	< 8	8 to 32	< 8	> 6.30	–	–	–	–	–	–	–	–	–	–
CCN(C1CCc2cc(-n3ccc(NC(=O)N4CCN(C(=O)C(C)(C)N)CC4)nc3=O)ccc2C1)[C@H]1CC[C@H](N)CC1 (stereo partly drawn) [Compound 16, 4-(2-Amino-2-methylpropanoyl)-N-(1-(6-(((trans)-4-aminocyclohexyl)(ethyl)amino)-5,6,7,8-tetrahydronaphthalen-2-yl)-2-oxo-1,2-dihydropyrimidin-4-yl)piperazine-1-carboxamide hydrochloride salt]	≤ 6.00	–	–	–	–	–	> 6.30	< 8	8 to 32	< 8	8 to 32	< 8	–	–	–	–	–
CC(C)(N)C(=O)N1CCN(C(=O)Nc2ccn(-c3ccc4c(c3)CCC(N(CC3CC3)[C@H]3CC[C@H](N)CC3)C4)c(=O)n2)CC1 (stereo partly drawn) [Compound 17, 4-(2-Amino-2-methylpropanoyl)-N-(1-(6-(((trans)-4-aminocyclohexyl)(cyclopropylmethyl)amino)-5,6,7,8-tetrahydronaphthalen-2-yl)-2-oxo-1,2-dihydropyrimidin-4-yl)piperazine-1-carboxamide hydrochloride salt]	≤ 6.00	–	–	–	–	–	6.00 to 6.30	< 8	8 to 32	< 8	8 to 32	< 8	–	–	–	–	–
CC(C)(N)C(=O)N1CCN(C(=O)Nc2ccn(-c3ccc4c(c3)OCC(N3CC[C@H](CN)C3)C4)c(=O)n2)CC1 (stereo partly shown) [Compound 18]	≤ 6.00	< 8	8 to 32 (≈ 14.9 to 59.4 µM)	8 to 32 (≈ 14.9 to 59.4 µM)	8 to 32 (≈ 14.9 to 59.4 µM)	< 8	≤ 6.00	–	–	–	–	–	–	–	–	–	–
CN(C1CCc2cc(-n3ccc(NC(=O)N4CCN(C(=O)C(C)(C)N)CC4)nc3=O)ccc2C1)[C@H]1CC[C@H](N)C1 (stereo partly shown) [Compound 19, Hydrochloride Salt]	≤ 6.00	< 8	8 to 32	< 8	8 to 32	< 8	> 6.30	–	–	–	–	–	–	–	–	–	–
CCN(C1CCc2cc(-n3ccc(NC(=O)N4CCN(C(=O)C(C)(C)N)CC4)nc3=O)ccc2C1)[C@H]1CC[C@H](N)C1 (stereo partly shown) [Compound 20]	≤ 6.00	< 8	8 to 32 (≈ 14.2 to 56.7 µM)	< 8	8 to 32 (≈ 14.2 to 56.7 µM)	< 8	> 6.30	–	–	–	–	–	–	–	–	–	–
CC(C)(N)C(=O)N1CCN(C(=O)Nc2ccn(-c3ccc4c(c3)CCC(N(CC3CC3)[C@H]3CC[C@H](N)C3)C4)c(=O)n2)CC1 (stereo partly shown) [Compound 21]	≤ 6.00	< 8	8 to 32 (≈ 13.5 to 54.2 µM)	< 8	8 to 32 (≈ 13.5 to 54.2 µM)	< 8	> 6.30	–	–	–	–	–	–	–	–	–	–
CC(C)(N)C(=O)N1CCN(C(=O)Nc2ccn(-c3ccc4c(c3)OCC(N3CCCC(N)CC3)C4)c(=O)n2)CC1 (stereo not shown) [Compound 22]	≤ 6.00	–	–	–	–	–	6.00 to 6.30	–	–	–	–	–	8 to 32	> 32	> 32	> 32	< 8
CC(C)(N)C(=O)N1CCN(C(=O)Nc2ccn(-c3ccc4c(c3)OCC(N3CC5CC5(CN)C3)C4)c(=O)n2)CC1 (stereo not shown) [Compound 23]	≤ 6.00	–	–	–	–	–	≤ 6.00	–	–	–	–	–	> 32	> 32	> 32	> 32	8 to 32
